Assay results as given in ChEMBL document CHEMBL2069221, “Hybrid molecules of carvacrol and benzoyl urea/thiourea with potential applications in agriculture and medicine” (Bioorg Med Chem Lett, 2012).
Values after ≈ are worked out from the molar mass of the structure shown. Active and inactive are the calls of the source. The rule behind the calls is not given here.

Key:
Dysdercus koenigii [1] = assay: Insecticidal activity against 5th instar nymph of Dysdercus koenigii assessed as mortality per nymph; type: functional
Pyricularia grisea = assay: Antifungal activity against Magnaporthe grisea after 48 hrs by microbroth dilution method; type: functional
Fusarium oxysporum = assay: Antifungal activity against Fusarium oxysporum after 48 hrs by microbroth dilution method; type: functional
Drechslera = assay: Antifungal activity against Dreschlera oryzae after 48 hrs by microbroth dilution method; type: functional
Debaryomyces hansenii = assay: Antifungal activity against Debaryomyces hansenii after 48 hrs by microbroth dilution method; type: functional
[2] = Antifungal activity against Pichia membranifaciens after 48 hrs by microbroth dilution method; type: functional
Candida albicans [3] = assay: Antifungal activity against Candida albicans NCIM 3557 after 48 hrs by microbroth dilution method; type: functional
Candida albicans [4] = assay: Antifungal activity against Candida albicans after 48 hrs by microbroth dilution method; type: functional
Candida albicans [5] = assay: Antifungal activity against Candida albicans NCIM 3471 after 48 hrs by microbroth dilution method; type: functional
Nakaseomyces glabratus = assay: Antifungal activity against Candida glabrata NCIM 3237 after 48 hrs by microbroth dilution method; type: functional
Cryptococcus neoformans [6] = assay: Antifungal activity against Cryptococcus neoformans after 48 hrs by microbroth dilution method; type: functional
Cryptococcus neoformans [7] = assay: Antifungal activity against Cryptococcus neoformans NCIM 3541 after 48 hrs by microbroth dilution method; type: functional
Cryptococcus neoformans [8] = assay: Antifungal activity against Cryptococcus neoformans NCIM 3542 after 48 hrs by microbroth dilution method; type: functional
Cryptococcus neoformans [9] = assay: Antifungal activity against Cryptococcus neoformans NCIM 3378 after 48 hrs by microbroth dilution method; type: functional
[10] = Toxicity in RBC assessed as induction of hemolysis; type: cell-based, Erythrocyte; conditions: red blood cells (RBC)
[11] = Toxicity in RBC assessed as induction of hemolysis at MIC; type: cell-based, Erythrocyte; conditions: red blood cells (RBC); read-out: Activity
Dysdercus koenigii [12] = assay: Insecticidal activity against 5th instar nymph of Dysdercus koenigii assessed as smaller body size at 20 and 50 ug/nymph; type: functional
Dysdercus koenigii [13] = assay: Insecticidal activity against 5th instar nymph of Dysdercus koenigii assessed as crumpled wings at 20 and 50 ug/nymph; type: functional
Dysdercus koenigii [14] = assay: Insecticidal activity against 5th instar nymph of Dysdercus koenigii assessed as deformed legs at 20 and 50 ug/nymph; type: functional
[15] = Toxicity in RBC assessed as induction of hemolysis at 1000 ug/ml; type: cell-based, Erythrocyte; conditions: red blood cells (RBC); read-out: Activity

Structure (SMILES) | LD50 (Dysdercus koenigii [1]) [µg] | MIC (Pyricularia grisea) [µg/mL] | MIC (Fusarium oxysporum) [µg/mL] | MIC (Drechslera) [µg/mL] | MIC (Debaryomyces hansenii) [µg/mL] | MIC [2] [µg/mL] | GI (Candida albicans [3]) [µg/mL] | GI (Candida albicans [4]) [µg/mL] | GI (Candida albicans [5]) [µg/mL] | GI (Nakaseomyces glabratus) [µg/mL] | GI (Cryptococcus neoformans [6]) [µg/mL] | GI (Cryptococcus neoformans [7]) [µg/mL] | GI (Cryptococcus neoformans [8]) [µg/mL] | GI (Cryptococcus neoformans [9]) [µg/mL] | HC50 [10] [µg/mL] | hemolysis [11] [%] | Activity (Dysdercus koenigii [12]) | Activity (Dysdercus koenigii [13]) | Activity (Dysdercus koenigii [14]) | hemolysis at 1000 ug/ml [15] [%]
Cc1cc(NC(=S)NC(=O)c2ccccc2Cl)c(C(C)C)cc1O | 13 | > 512 | > 512 | > 512 | > 512 | 512 (≈ 1410 µM) | 64 | 64 | >512 | 64 | 128 | 32 | 64 | >512 | > 1000 | < 2 |  |  |  | 
Cc1cc(NC(=O)NC(=O)c2ccc(F)cc2)c(C(C)C)cc1O | 14.9 | > 512 | > 512 | > 512 | > 512 | > 512 | >512 | 16 | 32 | 16 | >512 | <4 | 16 | 16 | > 1000 | < 2 |  |  |  | 
Cc1cc(NC(=S)NC(=O)c2ccccc2F)c(C(C)C)cc1O | 12.6 | 256 (≈ 739 µM) | 128 (≈ 369 µM) | > 512 | 256 (≈ 739 µM) | > 512 | 128 | 128 | >512 | 128 | 32 | 64 | 128 | 512 | > 1000 | < 2 |  |  |  | 
Cc1cc(NC(=S)NC(=O)c2c(F)cccc2F)c(C(C)C)cc1O | 11.3 | > 512 | > 512 | 256 (≈ 702 µM) | 128 (≈ 351 µM) | > 512 | 256 | 64 | >512 | 64 | 512 | 32 | 64 | 128 | > 1000 | < 2 |  |  |  | 
Cc1cc(NC(=O)NC(=O)c2ccccc2)c(C(C)C)cc1O | 21.5 | > 512 | > 512 | > 512 | > 512 | > 512 | 512 | >512 | >512 | >512 | >512 | >512 | 256 | >512 | > 1000 | < 2 |  |  |  | 
Cc1cc(NC(=O)NC(=O)c2ccccc2F)c(C(C)C)cc1O | 12.5 | > 512 | > 512 | > 512 | > 512 | > 512 | >512 | 16 | 32 | 16 | >512 | <4 | 16 | 16 | > 1000 | < 2 |  |  |  | 
Cc1cc(NC(=S)NC(=O)c2ccc(Cl)cc2)c(C(C)C)cc1O | 20.8 | 256 (≈ 705 µM) | 128 (≈ 353 µM) | > 512 | 256 (≈ 705 µM) | 512 (≈ 1410 µM) | 64 | 16 | 32 | 32 | 64 | 8 | 32 | 32 | > 1000 | < 2 |  |  |  | 
Cc1cc(NC(=O)NC(=O)c2ccccc2Cl)c(C(C)C)cc1O | 16.4 | > 512 | 512 (≈ 1480 µM) | 256 (≈ 738 µM) | 128 (≈ 369 µM) | 256 (≈ 738 µM) | 128 | 256 | >512 | >512 | 256 | 256 | 128 | 128 | > 1000 | < 2 |  |  |  | 
Cc1cc(NC(=S)NC(=O)c2ccccc2)c(C(C)C)cc1O | 23.6 | > 512 | > 512 | > 512 | > 512 | 512 (≈ 1560 µM) | 128 | 32 | >512 | 32 | 64 | 16 | 32 | 128 | > 1000 | < 2 |  |  |  | 
Cc1cc(NC(=O)NC(=O)c2c(F)cccc2F)c(C(C)C)cc1O | 9.5 | > 512 | > 512 | > 512 | > 512 | > 512 | >512 | 16 | 32 | 16 | >512 | <4 | 16 | 16 | > 1000 | < 2 | Active | Active | Active | 
Cc1ccc(C(C)C)cc1O [CARVACROL] | 33.3 | 128 (≈ 852 µM) | 64 (≈ 426 µM) | 64 (≈ 426 µM) | 128 (≈ 852 µM) | 128 (≈ 852 µM) | 128 | 128 | 256 | 128 | 128 | 128 | 128 | 128 | 250 |  |  |  |  | 
Cc1cc(NC(=S)NC(=O)c2ccc(F)cc2)c(C(C)C)cc1O | 12.6 | 256 (≈ 739 µM) | 128 (≈ 369 µM) | 256 (≈ 739 µM) | 256 (≈ 739 µM) | 512 (≈ 1480 µM) | 64 | 64 | >512 | 64 | 16 | 32 | 64 | 128 | > 1000 |  |  |  |  | 17
C[C@@H]1[C@H](O)[C@@H](C)/C=C/C=C/C=C/C=C/C=C/C=C/C=C/[C@H](O[C@@H]2O[C@H](C)[C@@H](O)[C@H](N)[C@@H]2O)C[C@@H]2O[C@](O)(C[C@@H](O)C[C@@H](O)[C@H](O)CC[C@@H](O)C[C@@H](O)CC(=O)O[C@H]1C)C[C@H](O)[C@H]2C(=O)O [AMPHOTERICIN B] |  |  |  |  |  |  |  |  |  |  |  |  |  |  | 8 |  |  |  |  | 
O=C(NC(=O)c1c(F)cccc1F)Nc1cc(Cl)c(OC(F)(F)C(F)C(F)(F)F)cc1Cl (stereo unspecified) [LUFENURON] | 9 | > 512 | > 512 | > 512 | > 512 | > 512 | >512 | >512 | >512 | >512 | >512 | >512 | >512 | >512 | > 1000 |  |  |  |  | 
Cc1cc(NC(=O)NC(=O)c2ccc(Cl)cc2)c(C(C)C)cc1O | 18 | 512 (≈ 1480 µM) | 256 (≈ 738 µM) | 128 (≈ 369 µM) | 128 (≈ 369 µM) | 256 (≈ 738 µM) | 64 | 32 | >512 | 32 | 64 | 32 | 32 | 32 | > 1000 | < 2 |  |  |  | 
